Data on 1 molecule can be found in patent US20050282911A1, “Memantine for the prevention or reduction of suicidality and for treatment of major depression associated with suicidality” (priority 2003, published 2005).

Structures are written as SMILES.

Series [1] deals with patients with major depressive disorder (MDD). Nature of the series: Open-label 12-week study of memantine in MDD (MEM-MD-09): safety and adverse events. The class given is in vivo, human. Here is the method: Study Design. The study was designed as a single-center, open-label, flexible dose 12-week study. Memantine was to be administered at 20 mg/day (10 mg b.i.d.) (titrated over a 4 week period), and, if warranted, up-titrated to a maximum of 40 mg/day (20 mg b.i.d.) (titrated in increments of 10 mg/day after Week 4).
Drug Treatment. All eight patients were initially given 5 mg/day and titrated over a 3-week period to a minimum dose of 20 mg/day. Patients with an unsatisfactory therapeutic response (CGI-I score greater than 2) could increase to a maximum of 40 mg/day (2 patients, 30 mg/day and 40 mg/day, respectively). One patient was titrated to 30 mg/day after Week 8, and […] after Week 10. The mean treatment duration was 82 days (range: 57-86 days) and the mean daily dose was 18.1 mg/day.
Safety. Safety was assessed throughout the course of the study by monitoring vital signs and spontaneously reported adverse events.

For series [2] the following is noted: cited from earlier work.

In the case of `CC12CC3CC(C)(C1)CC(N)(C3)C2.Cl` [Memantine, 1-amino-3,5-dimethyladamantane hydrochloride], in series [1] (20-40 mg/day, 12 weeks), the “clinical laboratory parameters, vital signs or ECG values” is listed as “no safety findings of concern”; the “deaths, serious adverse events, discontinuations due to adverse events” value is listed as “No deaths, serious adverse events or discontinuations due to adverse events”; the safety and tolerability result was “safe and well tolerated”. Also, in series [1] (Safety Population, N = 8), the “Number of Patients Reporting TEAE: Amnesia” value came to 2 patients, the “Number of Patients Reporting TEAE: Anxiety” value turned out to be 2 patients, the “Number of Patients Reporting TEAE: Dizziness” value came out at 2 patients and the “Number of Patients Reporting TEAE: Headache” value was 2 patients. For the same molecule, in series [1] (Safety Population, N = 8), the “Number of Patients Reporting TEAE: Influenza-like Symptoms” value is 2 patients, the “Number of Patients Reporting TEAE: Insomnia” value was determined as 2 patients, the “Number of Patients Reporting TEAE: Patients with at least one TEAE” value came to 8 patients and the “Number of Patients Reporting TEAE: Somnolence” value is given as 3 patients. In addition, the “solubility in aqueous media” value in series [2] is on record as “highly soluble”.
